Test results from the NIST ThermoML archive (doi:10.1016/j.jct.2004.06.002).

Legend:
[1] = Crystal
[2] = Molar enthalpy of transition or fusion; conditions: Crystal
[3] = molar heat capacity at constant pressure; conditions: 101.33 kPa

CCCCCCCCCCCC(=O)O.Cc1cc(C)nc(Nc2ccccc2)n1 [4,6-dimethyl-N-phenylpyrimidin-2-amine dodecanoate]
Conditions	Molar enthalpy of transition or fusion [kcal/mol]	Triple point temperature [K]
[1]	–	321.52
[2]	16.07	–

[3]
Conditions	molar heat capacity at constant pressure [J/K/mol]
78.4 K, Crystal	214.56
80.59 K, Crystal	219.02
82.77 K, Crystal	224.04
84.91 K, Crystal	229.03
87.02 K, Crystal	231.07
89.13 K, Crystal	235.38
91.21 K, Crystal	238.58
93.27 K, Crystal	241.25
95.35 K, Crystal	244.45
97.44 K, Crystal	249.07
99.52 K, Crystal	255.64
101.56 K, Crystal	258.48
103.55 K, Crystal	262.85
105.48 K, Crystal	266.32
107.37 K, Crystal	268.87
109.23 K, Crystal	272.45
111.05 K, Crystal	277.04
112.84 K, Crystal	280.4
114.62 K, Crystal	283.66
116.37 K, Crystal	286.19
118.1 K, Crystal	289.83
119.81 K, Crystal	291.78
121.5 K, Crystal	295.26
123.18 K, Crystal	299.07
124.85 K, Crystal	302.36
126.5 K, Crystal	305.27
128.13 K, Crystal	309.31
129.75 K, Crystal	313.47
131.36 K, Crystal	316.7
133.51 K, Crystal	320.85
136.04 K, Crystal	325.43
138.47 K, Crystal	328.35
140.85 K, Crystal	332.7
143.2 K, Crystal	334.95
145.52 K, Crystal	336.56
147.82 K, Crystal	338.15
150.09 K, Crystal	340.57
152.34 K, Crystal	342.79
154.57 K, Crystal	344.26
156.78 K, Crystal	346.53
158.98 K, Crystal	347.92
161.16 K, Crystal	351.38
163.31 K, Crystal	355.11
165.46 K, Crystal	356.7
167.59 K, Crystal	360.16
169.71 K, Crystal	363.66
171.81 K, Crystal	365.89
173.91 K, Crystal	368.25
175.99 K, Crystal	370.24
178.06 K, Crystal	374.92
180.1 K, Crystal	378.77
182.13 K, Crystal	381.27
184.16 K, Crystal	384.86
186.15 K, Crystal	387.43
188.14 K, Crystal	391.88
190.11 K, Crystal	393.71
192.06 K, Crystal	396.41
194.01 K, Crystal	400.38
195.94 K, Crystal	403.84
197.86 K, Crystal	406.78
199.77 K, Crystal	410.78
201.68 K, Crystal	414.73
203.58 K, Crystal	416.01
205.49 K, Crystal	418.67
207.39 K, Crystal	423.8
209.27 K, Crystal	427.28
213.63 K, Crystal	430.93
215.48 K, Crystal	433.69
217.33 K, Crystal	437.16
219.16 K, Crystal	440.33
220.99 K, Crystal	444.57
222.81 K, Crystal	447.12
224.61 K, Crystal	450.71
226.4 K, Crystal	454.16
228.17 K, Crystal	457.43
229.91 K, Crystal	461.64
231.66 K, Crystal	464.26
233.45 K, Crystal	468.99
235.26 K, Crystal	472.26
237.06 K, Crystal	475.98
238.86 K, Crystal	479.33
240.62 K, Crystal	485.92
242.33 K, Crystal	489.49
244.03 K, Crystal	494.38
245.76 K, Crystal	499.28
248.1 K, Crystal	502
250.99 K, Crystal	505.26
253.79 K, Crystal	509.97
256.52 K, Crystal	514.43
259.21 K, Crystal	517.59
261.87 K, Crystal	521.36
264.51 K, Crystal	524.15
267.13 K, Crystal	529.61
269.73 K, Crystal	533.73
272.3 K, Crystal	537.73
274.79 K, Crystal	541.43
277.25 K, Crystal	545.05
279.67 K, Crystal	549.95
282.04 K, Crystal	553.99
284.36 K, Crystal	557.02
286.64 K, Crystal	560.07
288.9 K, Crystal	564.82
291.1 K, Crystal	568.54
293.23 K, Crystal	573.27
295.4 K, Crystal	577.71
297.6 K, Crystal	582.62
299.78 K, Crystal	586.55
301.95 K, Crystal	590.35
304.05 K, Crystal	595.77
306.13 K, Crystal	598.65
308.2 K, Crystal	604.09
323.46 K, Liquid	830.56
325.28 K, Liquid	836.77
327.09 K, Liquid	842.17
328.88 K, Liquid	847.91
330.65 K, Liquid	851.32
332.41 K, Liquid	855.64
334.15 K, Liquid	860.22
335.87 K, Liquid	866.7
337.57 K, Liquid	869.28
339.26 K, Liquid	872.85
